Results taken from PMC4303209, “A novel phosphatidylinositol 3-kinase (PI3K) inhibitor directs a potent FOXO-dependent, p53-independent cell cycle arrest phenotype characterized by the differential induction of a subset of FOXO-regulated genes” (Breast Cancer Research : BCR, 2014).

System: MCF-7 breast cancer cells
Test: Microarray gene expression analysis (Agilent whole human genome 4 x 44K; compound vs DMSO, LIMMA log2 fold change)
Format: cell-based
Details: cell cycle genes

## Cn1ncc2c(N3CCOCC3)nc(-c3cccc(O)c3)nc21 [ETP-45658]
Gene 51499
  TRIAP1 log2FC: -0.820
Gene 51514
  DTL log2FC: 0.044
Gene 51547
  SIRT7 log2FC: 0.404
Gene 51550
  CINP log2FC: -0.074
Gene 51659
  GINS2 log2FC: -0.721
Gene 53371
  NUP54 log2FC: 0.683
Gene 53918
  PELO log2FC: -0.595
Gene 54361
  WNT4 log2FC: -0.709
Gene 54443
  ANLN log2FC: 0.699
Gene 54461
  FBXW5 log2FC: -0.054
Gene 54478
  FAM64A log2FC: 0.090
Gene 54514
  DDX4 log2FC: -0.146
Gene 54766
  BTG4 log2FC: 0.249
Gene 54820
  NDE1 log2FC: 0.535
Gene 54888
  NSUN2 log2FC: -0.186
Gene 54902
  TTC19 log2FC: 0.753
Gene 54957
  TXNL4B log2FC: 0.617
Gene 54971
  BANP log2FC: -0.168
Gene 54998
  AURKAIP1 log2FC: -0.353
Gene 55023
  PHIP log2FC: 1.243
Gene 55031
  USP47 log2FC: 0.762
Gene 55055
  ZWILCH log2FC: 0.619
Gene 55124
  PIWIL2 log2FC: -0.029
Gene 55125
  CEP192 log2FC: 0.534
Gene 55143
  CDCA8 log2FC: -0.107
Gene 55159
  RFWD3 log2FC: -0.597
Gene 55165
  CEP55 log2FC: 1.059
Gene 55166
  CENPQ log2FC: 0.796
Gene 55183
  RIF1 log2FC: 0.443
Gene 55207
  ARL8B log2FC: 0.686
Gene 55213
  RCBTB1 log2FC: 0.799
Gene 55231
  CCDC87 log2FC: -0.125
Gene 55240
  STEAP3 log2FC: -0.569
Gene 55329
  MNS1 log2FC: 0.765
Gene 55388
  MCM10 log2FC: -0.683
Gene 55512
  SMPD3 log2FC: -0.280
Gene 55521
  TRIM36 log2FC: 0.705
Gene 55544
  RBM38 log2FC: -0.536
Gene 55615
  PRR5 log2FC: 0.335
Gene 55660
  PRPF40A log2FC: 1.175
Gene 55722
  CEP72 log2FC: 0.344
Gene 55743
  CHFR log2FC: -0.026
Gene 55746
  NUP133 log2FC: 0.409
Gene 55749
  CCAR1 log2FC: 0.836
Gene 55755
  CDK5RAP2 log2FC: 0.516
Gene 55795
  PCID2 log2FC: 0.322
Gene 55839
  CENPN log2FC: 0.469
Gene 55844
  PPP2R2D log2FC: 0.037
Gene 55869
  HDAC8 log2FC: -0.325
Gene 55872
  PBK log2FC: 0.522
Gene 55909
  BIN3 log2FC: -0.746
Gene 55914
  ERBB2IP log2FC: 1.051
Gene 55920
  RCC2 log2FC: -0.248
Gene 55958
  KLHL9 log2FC: 0.133
Gene 56159
  TEX11 log2FC: -0.066
Gene 56165
  TDRD1 log2FC: 0.246
Gene 56288
  PARD3 log2FC: 0.418
Gene 56475
  RPRM log2FC: -0.078
Gene 56603
  CYP26B1 log2FC: 0.090
Gene 56907
  SPIRE1 log2FC: 0.377
Gene 56916
  SMARCAD1 log2FC: 0.653
Gene 56979
  PRDM9 log2FC: 0.085
Gene 56992
  KIF15 log2FC: 1.353
Gene 57026
  PDXP log2FC: -1.027
Gene 57060
  PCBP4 log2FC: -0.519
Gene 57082
  CASC5 log2FC: 0.187
Gene 57092
  PCNP log2FC: 0.687
Gene 57122
  NUP107 log2FC: 0.862
Gene 57132
  CHMP1B log2FC: 0.826
Gene 57144
  PAK7 log2FC: 0.396
Gene 57325
  CSRP2BP log2FC: 0.412
Gene 57348
  TTYH1 log2FC: -0.189
Gene 57448
  BIRC6 log2FC: 0.155
Gene 57504
  MTA3 log2FC: 0.345
Gene 57531
  HACE1 log2FC: 0.593
Gene 57551
  TAOK1 log2FC: 0.386
Gene 57695
  USP37 log2FC: 0.513
Gene 57697
  FANCM log2FC: 0.486
Gene 57820
  CCNB1IP1 log2FC: 1.174
Gene 58480
  RHOU log2FC: 1.289
Gene 58495
  OVOL2 log2FC: -0.133
Gene 60370
  AVPI1 log2FC: 0.391
Gene 60561
  RINT1 log2FC: 0.804
Gene 63901
  FAM111A log2FC: 0.319
Gene 63946
  DMRTC2 log2FC: -0.047
Gene 63967
  CLSPN log2FC: 0.066
Gene 64061
  TSPYL2 log2FC: -0.073
Gene 64180
  DPEP3 log2FC: -0.246
Gene 64326
  RFWD2 log2FC: 0.063
Gene 64946
  CENPH log2FC: 0.860
Gene 64975
  MRPL41 log2FC: -0.545
Gene 65123
  INTS3 log2FC: -0.455
Gene 65979
  PHACTR4 log2FC: 0.399
Gene 66037
  BOLL log2FC: -0.038
Gene 79003
  MIS12 log2FC: -0.429
Gene 79019
  CENPM log2FC: -0.105
Gene 79023
  NUP37 log2FC: 0.431
Gene 79027
  ZNF655 log2FC: 0.893
Gene 79172
  CENPO log2FC: -0.787
Gene 79733
  E2F8 log2FC: 0.114
Gene 79791
  FBXO31 log2FC: -0.232
Gene 79848
  CSPP1 log2FC: 0.754
Gene 79858
  NEK11 log2FC: 0.568
Gene 79884
  MAP9 log2FC: 1.193
Gene 79902
  NUP85 log2FC: 0.292
Gene 79959
  CEP76 log2FC: 0.323
Gene 80152
  CENPT log2FC: -0.175
Gene 80174
  DBF4B log2FC: -0.579
Gene 80184
  CEP290 log2FC: 0.854
Gene 80254
  CEP63 log2FC: 0.741
Gene 80279
  CDK5RAP3 log2FC: -0.091
Gene 80321
  CEP70 log2FC: 0.756
Gene 81027
  TUBB1 log2FC: -0.436
Gene 81565
  NDEL1 log2FC: -0.111
Gene 81610
  FAM83D log2FC: -0.088
Gene 81617
  CAB39L log2FC: 0.106
Gene 81669
  CCNL2 log2FC: 0.230
Gene 81928
  CABLES2 log2FC: -0.937
Gene 81930
  KIF18A log2FC: 1.204
Gene 83667
  SESN2 log2FC: -0.701
Gene 83852
  SETDB2 log2FC: 1.285
Gene 83903
  GSG2 log2FC: -0.491
Gene 83937
  RASSF4 log2FC: 0.185
Gene 84057
  MND1 log2FC: 0.497
Gene 84072
  HORMAD1 log2FC: 0.519
Gene 84101
  USP44 log2FC: -0.061
Gene 84131
  CEP78 log2FC: 0.550
Gene 84296
  GINS4 log2FC: -0.398
Gene 84440
  RAB11FIP4 log2FC: 0.575
Gene 84445
  LZTS2 log2FC: 0.831
Gene 84446
  BRSK1 log2FC: -0.038
Gene 84501
  SPIRE2 log2FC: 0.454
Gene 84612
  PARD6B log2FC: 0.731
Gene 84687
  PPP1R9B log2FC: -0.425
Gene 84690
  SPATA22 log2FC: -0.013
Gene 84707
  BEX2 log2FC: 0.736
Gene 84722
  PSRC1 log2FC: 0.114
Gene 84861
  KLHL22 log2FC: 0.165
Gene 84897
  TBRG1 log2FC: 0.370
Gene 84930
  MASTL log2FC: 0.592
Gene 84967
  LSM10 log2FC: -1.152
Gene 85417
  CCNB3 log2FC: 0.077
Gene 85444
  LRRCC1 log2FC: 0.773
Gene 85458
  DIXDC1 log2FC: 0.062
Gene 87178
  PNPT1 log2FC: 0.445
Gene 89782
  LMLN log2FC: 0.783
Gene 90293
  KLHL13 log2FC: 0.112
Gene 90480
  GADD45GIP1 log2FC: -0.402
Gene 91607
  SLFN11 log2FC: -0.432
Gene 91687
  CENPL log2FC: 0.066
Gene 91768
  CABLES1 log2FC: 1.627
Gene 93426
  SYCE1 log2FC: -0.072
Gene 93973
  ACTR8 log2FC: 0.366
Gene 94241
  TP53INP1 log2FC: 0.920
Gene 113130
  CDCA5 log2FC: 0.030
Gene 114791
  TUBGCP5 log2FC: 0.520
